What all share (format): in vivo
Test [1] deals with larvae of the mustard beetle (Phaedon cochleariae). Description: Phaedon test (PHAECO spray treatment). As to conditions: Example G; 4 ppm active compound; sprayed Chinese cabbage discs. As for the experimental part:
Phaedon Test (PHAECO Spray Treatment)
• Solvents: 78 parts by weight of acetone • 1.5 parts by weight of dimethylformamide • Emulsifier: 0.5 part by weight of alkylaryl polyglyycol ether
After the desired period of time, the effect in % is determined. 100% means that all beetle larvae have been killed; 0% means that none of the beetle larvae have been killed.

Test [2] relates to greenhouse red spider mite (Tetranychus urticae). Description: Tetranychus test, OP-resistant (TETRUR spray treatment). As to conditions: sprayed bean leaf discs. As for the experimental part:
Tetranychus Test, OP-resistant (TETRUR Spray Treatment)
• Solvents: 78 parts by weight of acetone • 1.5 parts by weight of dimethylformamide • Emulsifier: 0.5 part by weight of alkylaryl polyglycol ether
To produce a suitable preparation of active compound, 1 part by weight of active compound is mixed with the stated amounts of solvents and emulsifier, and the concentrate is diluted with emulsifier-containing water to the desired concentration.
Discs of bean leaves (Phaseolus vulgaris) heavily infested by all stages of the greenhouse red spider mite (Tetranychus urticae) are sprayed with a preparation of active compound of the desired concentration.
After the desired period of time, the effect in % is determined 100% means that all spider mites have been killed; 0% means that none of the spider mites have been killed.
(§1) In this test, for example, the following compounds of the preparation examples show good activity: see table

In test [3] the test system is caterpillars of the army worm (Spodoptera frugiperda). Description: Spodoptera frugiperda test (SPODFR spray treatment). As to conditions: Example I; 4 ppm active compound; sprayed maize leaf discs. As for the experimental part: Spodoptera frugiperda Test (SPODFR Spray Treatment)
• Solvents: 78.0 parts by weight of acetone • 1.5 parts by weight of dimethylformamide • Emulsifier: 0.5 part by weight of alkylaryl polyglyycol ether
After the desired period of time, the effect in % is determined. 100% means that all caterpillars have been killed; 0% means that none of the caterpillars have been killed.

In test [4] the test system is unfed adult fleas (Ctenocephalides felis). In words: Ctenocephalides felis; oral (CTECFE). As to conditions: Example J; 4 ppm active compound in citrated cattle blood, oral uptake. As for the experimental part: Ctenocephalides felis; Oral (CTECFE)
(§2) • Solvent: Dimethyl sulphoxide
To produce a suitable preparation of active compound, 1 part by weight of active compound is mixed with the stated amount of solvent. Part of the concentrate is diluted with citrated cattle blood, and the desired concentration is prepared.
20 unfed adult fleas (Ctenocephalides felis) are placed into a chamber whose top and bottom ends are closed with gauze. A metal cylinder whose bottom end is closed with parafilm is placed onto the chamber. The cylinder contains the blood/active compound preparation, which can be taken up by the fleas through the parafilm membrane. The blood is warmed to 37° C., but the flea chamber is at room temperature.
After the desired period of time, the kill in % is determined. 100% means that all fleas have been killed; 0% means that none of the fleas have been killed.
as §1

The next test deals with Lucilia cuprina larvae. Description: Lucilia cuprina test (LUCICU). As to conditions: Example A; 0.8 ppm active compound; treated horsemeat. As for the experimental part:
Lucilia cuprina Test (LUCICU)
Description for Examples A and B
as §2
To produce a suitable preparation of active compound, 1 part by weight of active compound is mixed with the stated amount of water and the concentrate is diluted with water to the desired concentration.
Containers containing horsemeat treated with the active compound preparation of the desired concentration are populated with Lucilia cuprina larvae.
After the desired period of time, the kill in % is determined. 100% means that all larvae have been killed; 0% means that none of the larvae have been killed.
as §1

In another test the test system is adult Musca domestica. Description: Musca domestica test (MUSCDO). As to conditions: Example C; 100 ppm active compound; treated sponge. How it is done: Musca domestica Test (MUSCDO)
as §2
To produce a suitable preparation of active compound, 1 part by weight of active compound is mixed with the stated amount of water, and the concentrate is diluted with water to the desired concentration.
Containers containing a sponge treated with the preparation of active compound of the desired concentration are populated with adult Musca domestica.
After the desired period of time, the kill in % is determined. 100% means that all flies have been killed; 0% means that none of the flies have been killed.
as §1

[5] abbreviates: Example H, 0.032 ppm active compound.

As to `COC1CC(OC2C(C)=CCC3CC(CC4(CCC(C)C(C(C)C)O4)O3)OC(=O)C3C=C(C)C(O)C4OCC(=CC=CC2C)C34O)OC(C)C1OC(C)=O` [4′-O-acetyl-4′-O-de(2,6-dideoxy-3-O-methyl-α-L-arabino-hexopyranosyl)-5-O-demethyl-25-de(1-methylpropyl)-22,23-dihydro-25-(1-methylethyl)-avermectin A1a, reference compound], the “Kill rate in % after 7 days” value in test [1] was 0%. Further, the “Kill rate in % after 5 days” value in test [2] (setting [5]) and in test [3] was 0% each time. Besides, the “Kill rate in % after 2 days” value in test [4] turned out to be 20%.

Consider `CC[C@H](C)[C@H]1OC2(C=C[C@@H]1C)C[C@@H]1C[C@@H](C/C=C(\C)[C@@H](OC3CC(OC)C(OC(=O)c4ccccc4)C(C)O3)[C@@H](C)/C=C/C=C3\CO[C@@H]4[C@H](O)C(C)=CC(C(=O)O1)[C@]34O)O2` (stereo partly shown) [Example 2], for which the “Kill rate in % after 5 days” value in test [2] (Example F, 0.00128 ppm active compound) was 80%.

In the case of `CC[C@H](C)[C@H]1OC2(CC[C@@H]1C)C[C@@H]1C[C@@H](C/C=C(\C)[C@@H](OC3CC(OC)C(OC(=O)C(C)(C)n4cncn4)C(C)O3)[C@@H](C)/C=C/C=C3\CO[C@@H]4[C@H](O)C(C)=CC(C(=O)O1)[C@]34O)O2` (stereo partly shown) [Example 23], in test [1], the “Kill rate in % after 7 days” value stood at 100%. For the same compound, the “Kill rate in % after 5 days” value in test [2] (setting [5]) is listed as 70%.

`CC[C@H](C)[C@H]1OC2(C=C[C@@H]1C)C[C@@H]1C[C@@H](C/C=C(\C)[C@@H](OC3CC(OC)C(OC(=O)C(C)n4cccn4)C(C)O3)[C@@H](C)/C=C/C=C3\CO[C@@H]4[C@H](O)C(C)=CC(C(=O)O1)[C@]34O)O2` (stereo partly shown) [Example 48]: the “Kill rate in % after 7 days” value in test [1] is 100%. Also, the “Kill rate in % after 2 days” value in the test with Lucilia cuprina larvae and in the test with adult Musca domestica was 100% throughout. Moreover, in test [3], the “Kill rate in % after 5 days” value stood at 100%.

For `CC[C@H](C)[C@H]1OC2(C=C[C@@H]1C)C[C@@H]1C[C@@H](C/C=C(\C)[C@@H](OC3CC(OC)C(OC(=O)CN4CCCCC4)C(C)O3)[C@@H](C)/C=C/C=C3\CO[C@@H]4[C@H](O)C(C)=CC(C(=O)O1)[C@]34O)O2` (stereo partly shown) [Example 50], in test [1], the “Kill rate in % after 7 days” value is 83%. Also, the entries for the “Kill rate in % after 2 days” value (in the test with Lucilia cuprina larvae; in test [4]; in the test on adult Musca domestica) were 100%, 50% and 90%, respectively. Moreover, the “Kill rate in % after 5 days” value in test [3] is 100%.

Take `CC[C@H](C)[C@H]1OC2(C=C[C@@H]1C)C[C@@H]1C[C@@H](C/C=C(\C)[C@@H](OC3CC(OC)C(OC(=O)C(C)N4CCOCC4)C(C)O3)[C@@H](C)/C=C/C=C3\CO[C@@H]4[C@H](O)C(C)=CC(C(=O)O1)[C@]34O)O2` (stereo partly shown) [Example 52, 4′-O-(2-morpholin-4-ylpropanoyl)-avermectin B1 monosaccharide]: in test [1], the “Kill rate in % after 7 days” value came to 100%. In addition, the “Kill rate in % after 2 days” value came to 100% in the test on Lucilia cuprina larvae and 50% in test [4]. Moreover, the “Kill rate in % after 5 days” value in test [3] is 100%.

Take `CC[C@H](C)[C@H]1OC2(C=C[C@@H]1C)C[C@@H]1C[C@@H](C/C=C(\C)[C@@H](OC3CC(OC)C(OC(=O)CN(C)C)C(C)O3)[C@@H](C)/C=C/C=C3\CO[C@@H]4[C@H](O)C(C)=CC(C(=O)O1)[C@]34O)O2` (stereo partly shown) [Example 57]: in test [1], the “Kill rate in % after 7 days” value is on record as 100%. For the same compound, the results for the “Kill rate in % after 2 days” value (in the test on Lucilia cuprina larvae; in test [4]; in the test with adult Musca domestica) were 100%, 40% and 90%, respectively.

With `CC[C@H](C)[C@H]1OC2(C=C[C@@H]1C)C[C@@H]1C[C@@H](C/C=C(\C)[C@@H](OC3CC(OC)C(OC(=O)Cc4nn(C)c(=O)n4C)C(C)O3)[C@@H](C)/C=C/C=C3\CO[C@@H]4[C@H](O)C(C)=CC(C(=O)O1)[C@]34O)O2` (stereo partly shown) [Example 60], the “Kill rate in % after 7 days” value in test [1] worked out at 100%. In addition, the “Kill rate in % after 2 days” value in the test on Lucilia cuprina larvae was found to be 90%; in test [4], 50%; in the test on adult Musca domestica, 100%.
